From ChEMBL document CHEMBL3885861, “Open TG-GATES”

Organism: Rattus norvegicus
Test: Open TG-GATES - Regimen: Daily Repeat
Assay type: toxicity, organism-based, Sprague-Dawley
Parameters: regimen Daily Repeat, gender Male, age 6 weeks
Conditions: in vivo, po, route gavage; for Eos / Fbg / Ht / Lym / MCHC / MCV / Mono / Neu / RBC / Ret / WBC / APTT / Bas / PT / Hb: tissue Blood; for KIDNEY_L / KIDNEY_R / KIDNEY_TOTAL: tissue Kidney; for ALP / ALT / AST / BUN / CRE / Ca / Cl / DBIL / GLC / IP / K / PL / RALB / TBIL / TC / TG / TP / gamma-GTP: tissue Plasma
[1] = 60 mg/kg, 72 h, dose level Middle, time 3 day
[2] = 60 mg/kg, […], dose level Middle, time 7 day
[3] = 60 mg/kg, […], dose level Middle, time 14 day
[4] = 60 mg/kg, […], dose level Middle, time 28 day
[5] = 200 mg/kg, 72 h, dose level High, time 3 day
[6] = 200 mg/kg, […], dose level High, time 7 day
[7] = 200 mg/kg, […], dose level High, time 14 day
[8] = 200 mg/kg, […], dose level High, time 28 day

SMILES: CCCCC1C(=O)N(c2ccccc2)N(c2ccccc2)C1=O [PHENYLBUTAZONE]
- Eos [1]: 1.2%
- Fbg [1]: 234.2 mg/dL
- Ht [1]: 42.3%
- Lym [1]: 76.2%
- MCHC [1]: 33.5%
- MCV [1]: 63.4 fL
- Mono [1]: 6.4%
- Neu [1]: 16.4%
- RBC [1]: 667.4 x10_4/ul
- Ret [1]: 6.7%
- WBC [1]: 119.1 x10_2/uL
- KIDNEY_L [1]: 1 g
- KIDNEY_R [1]: 1 g
- KIDNEY_TOTAL [1]: 2 g
- ALP [1]: 957.4 IU/L
- ALT [1]: 35.6 IU/L
- AST [1]: 57.6 IU/L
- BUN [1]: 18.4 mg/dL
- CRE [1]: 0.6 mg/dL
- Ca [1]: 10.5 mg/dL
- Cl [1]: 105.6 meq/L
- DBIL [1]: 0.006 mg/dL
- GLC [1]: 199.4 mg/dL
- IP [1]: 7.9 mg/dL
- K [1]: 4.7 meq/L
- PL [1]: 167.6 mg/dL
- RALB [1]: 4 g/dL
- TBIL [1]: 0.3 mg/dL
- TC [1]: 92 mg/dL
- TG [1]: 136.8 mg/dL
- TP [1]: 6.1 g/dL
- gamma-GTP [1]: 1 IU/L
- TERMINAL_BW [2]: 272.5 g
- TERMINAL_BW [3]: 313.9 g
- TERMINAL_BW [4]: 407.1 g
- APTT [2]: 16.2 s
- Bas [2]: 0%
- Eos [2]: 0.4%
- Fbg [2]: 231 mg/dL
- Ht [2]: 42.2%
- Lym [2]: 86.2%
- MCHC [2]: 33.6%
- MCV [2]: 64.2 fL
- Mono [2]: 4.2%
- Neu [2]: 9%
- PT [2]: 11.7 s
- RBC [2]: 657.4 x10_4/ul
- Ret [2]: 5.4%
- WBC [2]: 186.6 x10_2/uL
- APTT [3]: 16.5 s
- Bas [3]: 0%
- Eos [3]: 0.6%
- Fbg [3]: 227.6 mg/dL
- Hb [3]: 14.9 g/dL
- Ht [3]: 44.5%
- Lym [3]: 86%
- MCHC [3]: 33.5%
- MCV [3]: 60.4 fL
- Mono [3]: 4%
- Neu [3]: 9.4%
- RBC [3]: 736.4 x10_4/ul
- Ret [3]: 4.4%
- WBC [3]: 167.1 x10_2/uL
- APTT [4]: 15.9 s
- Bas [4]: 0%
- Eos [4]: 0.6%
- Fbg [4]: 246.5 mg/dL
- Hb [4]: 15.3 g/dL
- Ht [4]: 45.9%
- Lym [4]: 86%
- MCHC [4]: 33.4%
- MCV [4]: 58.4 fL
- Mono [4]: 3%
- RBC [4]: 786.6 x10_4/ul
- Ret [4]: 2.6%
- WBC [4]: 129.4 x10_2/uL
- KIDNEY_L [2]: 1.1 g
- KIDNEY_R [2]: 1.1 g
- KIDNEY_TOTAL [2]: 2.2 g
- KIDNEY_L [3]: 1.3 g
- KIDNEY_R [3]: 1.3 g
- KIDNEY_TOTAL [3]: 2.6 g
- KIDNEY_L [4]: 1.4 g
- KIDNEY_R [4]: 1.4 g
- KIDNEY_TOTAL [4]: 2.9 g
- ALP [2]: 845.8 IU/L
- ALT [2]: 37.4 IU/L
- AST [2]: 65 IU/L
- BUN [2]: 20.8 mg/dL
- CRE [2]: 0.5 mg/dL
- Ca [2]: 10.7 mg/dL
- Cl [2]: 106.6 meq/L
- DBIL [2]: 0 mg/dL
- GLC [2]: 195.8 mg/dL
- IP [2]: 8.5 mg/dL
- K [2]: 5 meq/L
- PL [2]: 161 mg/dL
- RALB [2]: 4 g/dL
- TBIL [2]: 0.3 mg/dL
- TC [2]: 79 mg/dL
- TG [2]: 166.8 mg/dL
- TP [2]: 6.7 g/dL
- gamma-GTP [2]: 1.4 IU/L
- ALP [3]: 877.8 IU/L
- ALT [3]: 36.4 IU/L
- AST [3]: 65 IU/L
- BUN [3]: 20.8 mg/dL
- CRE [3]: 0.6 mg/dL
- Ca [3]: 10.6 mg/dL
- Cl [3]: 107 meq/L
- DBIL [3]: 0.002 mg/dL
- GLC [3]: 189.4 mg/dL
- IP [3]: 8.3 mg/dL
- K [3]: 4.5 meq/L
- RALB [3]: 4 g/dL
- TBIL [3]: 0.3 mg/dL
- TC [3]: 64 mg/dL
- TG [3]: 138 mg/dL
- TP [3]: 6.3 g/dL
- gamma-GTP [3]: 1.8 IU/L
- ALP [4]: 605.8 IU/L
- ALT [4]: 44.2 IU/L
- AST [4]: 70.8 IU/L
- BUN [4]: 22.2 mg/dL
- CRE [4]: 0.6 mg/dL
- Ca [4]: 10.7 mg/dL
- Cl [4]: 105.2 meq/L
- DBIL [4]: 0.006 mg/dL
- GLC [4]: 189.8 mg/dL
- IP [4]: 7.7 mg/dL
- K [4]: 4.6 meq/L
- PL [4]: 161.8 mg/dL
- RALB [4]: 4.3 g/dL
- TBIL [4]: 0.4 mg/dL
- TC [4]: 76.4 mg/dL
- TG [4]: 280.8 mg/dL
- TP [4]: 6.8 g/dL
- gamma-GTP [4]: 1.2 IU/L
- TERMINAL_BW [5]: 224.8 g
- APTT [5]: 17.7 s
- Bas [5]: 0%
- Eos [5]: 1%
- Fbg [5]: 309.8 mg/dL
- Hb [5]: 12.5 g/dL
- Ht [5]: 37.3%
- Lym [5]: 74.4%
- MCHC [5]: 33.5%
- MCV [5]: 63.9 fL
- Mono [5]: 9.4%
- Neu [5]: 15.8%
- PT [5]: 11.7 s
- RBC [5]: 586.8 x10_4/ul
- Ret [5]: 8.1%
- WBC [5]: 200.4 x10_2/uL
- KIDNEY_L [5]: 1.1 g
- KIDNEY_R [5]: 1.1 g
- KIDNEY_TOTAL [5]: 2.2 g
- ALP [5]: 627.8 IU/L
- ALT [5]: 27 IU/L
- AST [5]: 55.2 IU/L
- BUN [5]: 20.4 mg/dL
- CRE [5]: 0.6 mg/dL
- Ca [5]: 10.2 mg/dL
- Cl [5]: 106 meq/L
- DBIL [5]: 0 mg/dL
- GLC [5]: 189.2 mg/dL
- IP [5]: 7 mg/dL
- K [5]: 5.1 meq/L
- RALB [5]: 3.3 g/dL
- TBIL [5]: 0.2 mg/dL
- TC [5]: 81.8 mg/dL
- TG [5]: 168.6 mg/dL
- TP [5]: 5.8 g/dL
- gamma-GTP [5]: 2.2 IU/L
- TERMINAL_BW [6]: 254.1 g
- TERMINAL_BW [7]: 296 g
- TERMINAL_BW [8]: 348.8 g
- APTT [6]: 17.1 s
- Bas [6]: 0%
- Eos [6]: 1%
- Fbg [6]: 250 mg/dL
- Hb [6]: 13.4 g/dL
- Ht [6]: 40.3%
- Lym [6]: 77%
- MCHC [6]: 33.4%
- MCV [6]: 63.9 fL
- Mono [6]: 4.6%
- Neu [6]: 17.6%
- PT [6]: 11.7 s
- RBC [6]: 631.8 x10_4/ul
- Ret [6]: 7.4%
- WBC [6]: 199.8 x10_2/uL
- APTT [7]: 17.5 s
- Bas [7]: 0%
- Eos [7]: 0.4%
- Fbg [7]: 257.2 mg/dL
- Hb [7]: 13.8 g/dL
- Ht [7]: 41.2%
- Lym [7]: 78.8%
- MCHC [7]: 33.4%
- MCV [7]: 59.6 fL
- Mono [7]: 4.4%
- Neu [7]: 16.2%
- RBC [7]: 692.2 x10_4/ul
- Ret [7]: 5.8%
- WBC [7]: 162.2 x10_2/uL
- APTT [8]: 15.6 s
- Bas [8]: 0%
- Eos [8]: 0.4%
- Fbg [8]: 273 mg/dL
- Hb [8]: 13.3 g/dL
- Ht [8]: 39.7%
- Lym [8]: 76%
- MCHC [8]: 33.4%
- MCV [8]: 58 fL
- Mono [8]: 3%
- Neu [8]: 20.4%
- RBC [8]: 684.8 x10_4/ul
- Ret [8]: 6.4%
- WBC [8]: 184.3 x10_2/uL
- KIDNEY_L [6]: 1.1 g
- KIDNEY_R [6]: 1.1 g
- KIDNEY_TOTAL [6]: 2.2 g
- KIDNEY_L [7]: 1.2 g
- KIDNEY_R [7]: 1.2 g
- KIDNEY_TOTAL [7]: 2.4 g
- KIDNEY_L [8]: 1.4 g
- KIDNEY_R [8]: 1.5 g
- KIDNEY_TOTAL [8]: 2.9 g
- ALP [6]: 763 IU/L
- ALT [6]: 32 IU/L
- AST [6]: 57.4 IU/L
- BUN [6]: 20.2 mg/dL
- CRE [6]: 0.6 mg/dL
- Ca [6]: 10.7 mg/dL
- Cl [6]: 105 meq/L
- DBIL [6]: 0 mg/dL
- GLC [6]: 201 mg/dL
- IP [6]: 8.4 mg/dL
- K [6]: 4.8 meq/L
- RALB [6]: 3.9 g/dL
- TBIL [6]: 0.3 mg/dL
- TC [6]: 75.4 mg/dL
- TG [6]: 113.8 mg/dL
- TP [6]: 6.6 g/dL
- gamma-GTP [6]: 2.8 IU/L
- ALP [7]: 719.2 IU/L
- ALT [7]: 30.4 IU/L
- AST [7]: 63 IU/L
- BUN [7]: 26.6 mg/dL
- CRE [7]: 0.6 mg/dL
- Ca [7]: 10.7 mg/dL
- Cl [7]: 106.2 meq/L
- DBIL [7]: 0.008 mg/dL
- GLC [7]: 184.6 mg/dL
- IP [7]: 8.4 mg/dL
- K [7]: 4.3 meq/L
- RALB [7]: 3.9 g/dL
- TBIL [7]: 0.4 mg/dL
- TC [7]: 69.6 mg/dL
- TG [7]: 147.6 mg/dL
- TP [7]: 6.4 g/dL
- gamma-GTP [7]: 1.2 IU/L
- ALP [8]: 413 IU/L
- ALT [8]: 28.2 IU/L
- AST [8]: 57.2 IU/L
- BUN [8]: 24.2 mg/dL
- CRE [8]: 0.6 mg/dL
- Ca [8]: 10.5 mg/dL
- Cl [8]: 106.8 meq/L
- DBIL [8]: 0.02 mg/dL
- GLC [8]: 174.2 mg/dL
- IP [8]: 7.4 mg/dL
- K [8]: 4.4 meq/L
- RALB [8]: 3.9 g/dL
- TBIL [8]: 0.3 mg/dL
- TC [8]: 72.2 mg/dL
- TG [8]: 166.2 mg/dL
- TP [8]: 6.1 g/dL
- gamma-GTP [8]: 1.8 IU/L
